Key:
Type in all cases: in vivo
[1] = tested on: ducksalad (Heteranthera limosa); assay: Test B flooded paddy test; settings: Heteranthera limosa, 250 g ai/ha, Flood; 0 to 100 scale where 0 is no effect and 100 is complete control; read-out: Ducksalad plant response rating
Method in brief: (§1)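 Rating scale 0–100 (visual, vs untreated controls) after a 13–15 d greenhouse period; application to the flood layer, 3 cm above soil and maintained; plants at 2-leaf stage when treated.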

[2] = tested on: rice (Oryra sativa); assay: Test B flooded paddy test; settings: Oryza sativa, 250 g ai/ha, Flood; 0 to 100 scale where 0 is no effect and 100 is complete control; read-out: Rice plant response rating
Method in brief: as §1

[3] = tested on: sedge, umbrella (small-flower umbrella sedge, Cyperus difformis); assay: Test B flooded paddy test; settings: Cyperus difformis, 250 g ai/ha, Flood; 0 to 100 scale where 0 is no effect and 100 is complete control; read-out: Sedge, Umbrella plant response rating
Method in brief: as §1

[4] = tested on: barnyardgrass (Echinochloa crus-galli); assay: Test B flooded paddy test; settings: Echinochloa crus-galli, 250 g ai/ha, Flood; 0 to 100 scale where 0 is no effect and 100 is complete control; read-out: Barnyardgrass plant response rating
Method in brief: as §1

[5] = tested on: wheat (Triticum aestivum); assay: Test A postemergence; settings: Triticum aestivum, post-emergence, 240 h
Method in brief: (§2)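 Ratings of 0 (no effect) to 100 (complete control) come from visual comparison with untreated controls roughly 10 d after treatment. Test chemicals, formulated in a non-phytotoxic solvent mixture with surfactant, were applied either as a preemergence directed soil spray on seeded soil or postemergence to one- to two-leaf plants 2 to 10 cm tall.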

[6] = tested on: pigweed (Amaranthus retroflexus); assay: Test A postemergence; settings: Amaranthus retroflexus, post-emergence, 240 h
Method in brief: as §2

[7] = tested on: Kochia (Kochia scoparia); assay: Test A postemergence; settings: Bassia scoparia, post-emergence, 240 h
Method in brief: as §2

[8] = tested on: ryegrass, Italian (Italian ryegrass, Lolium multiflorum); assay: Test A postemergence; settings: Lolium multiflorum, post-emergence, 240 h
Method in brief: as §2

[9] = tested on: barnyardgrass (Echinochloa crus-galli); assay: Test A postemergence; settings: Echinochloa crus-galli, post-emergence, 240 h
Method in brief: as §2

[10] = tested on: blackgrass (Alopecurus myosuroides); assay: Test A postemergence; settings: Alopecurus myosuroides, post-emergence, 240 h
Method in brief: as §2

[11] = tested on: ragweed (common ragweed, Ambrosia elatior); assay: Test A postemergence; settings: Ambrosia artemisiifolia, post-emergence, 240 h
Method in brief: as §2

[12] = tested on: corn (Zea mays); assay: Test A postemergence; settings: Zea mays, post-emergence, 240 h
Method in brief: as §2

[13] = tested on: giant foxtail (Setaria faberii); assay: Test A postemergence; settings: Setaria faberi, post-emergence, 240 h
Method in brief: as §2

[14] = tested on: pigweed (Amaranthus retroflexus); assay: Test A preemergence; settings: Amaranthus retroflexus, pre-emergence, 240 h, 0 to 100 scale where 0 is no effect and 100 is complete control, read-out: Pigweed plant response rating
[15] = tested on: Kochia (Kochia scoparia); assay: Test A preemergence; settings: Bassia scoparia, pre-emergence, 240 h, 0 to 100 scale where 0 is no effect and 100 is complete control, read-out: Kochia plant response rating
Method in brief: as §2

[16] = tested on: ryegrass, Italian (Italian ryegrass, Lolium multiflorum); assay: Test A preemergence; settings: Lolium multiflorum, pre-emergence, 240 h, 0 to 100 scale where 0 is no effect and 100 is complete control, read-out: Ryegrass, Italian plant response rating
Method in brief: as §2

[17] = tested on: barnyardgrass (Echinochloa crus-galli); assay: Test A preemergence; settings: Echinochloa crus-galli, pre-emergence, 240 h, 0 to 100 scale where 0 is no effect and 100 is complete control, read-out: Barnyardgrass plant response rating
Method in brief: as §2

[18] = tested on: ragweed (common ragweed, Ambrosia elatior); assay: Test A preemergence; settings: Ambrosia artemisiifolia, pre-emergence, 240 h, 0 to 100 scale where 0 is no effect and 100 is complete control, read-out: Ragweed plant response rating
Method in brief: as §2

[19] = tested on: giant foxtail (Setaria faberii); assay: Test A preemergence; settings: Setaria faberi, pre-emergence, 240 h, 0 to 100 scale where 0 is no effect and 100 is complete control, read-out: Foxtail, Giant plant response rating
Method in brief: as §2

[20] = 125 g ai/ha, preemergence, approx. 10 d

SMILES: CC(C)Oc1cc([C@H]2CN(C)C(=O)[C@@H]2C(=O)Nc2cccc(F)c2F)ccc1F [Compound 1075]
- pest or weed control at 250 g/ha [1]: 100%
- pest or weed control at 250 g/ha [2]: 35%
- pest or weed control at 250 g/ha [3]: 0%
- pest or weed control at 250 g/ha [4]: 75%
- plant injury at 125 g/ha ([5]; 125 g ai/ha, postemergence, visual injury on 0 to 100 scale (0 no effect, 100 complete control), approx. 10 d, read-out: Wheat plant response rating): 60%
- plant injury at 31 g/ha ([5]; Postemergence, 31 g ai/ha, visual injury after approx. 10 d, 0 to 100 scale, 0 no effect, 100 complete control, read-out: Plant response rating, Wheat): 0%
- pest or weed control at 125 g/ha ([6]; 125 g ai/ha, postemergence, visual injury on 0 to 100 scale (0 no effect, 100 complete control), approx. 10 d, read-out: Pigweed plant response rating): 0%
- pest or weed control at 31 g/ha ([6]; Postemergence, 31 g ai/ha, visual injury after approx. 10 d, 0 to 100 scale, 0 no effect, 100 complete control, read-out: Plant response rating, Pigweed): 0%
- pest or weed control at 125 g/ha ([7]; 125 g ai/ha, postemergence, visual injury on 0 to 100 scale (0 no effect, 100 complete control), approx. 10 d, read-out: Kochia plant response rating): 30%
- pest or weed control at 31 g/ha ([7]; Postemergence, 31 g ai/ha, visual injury after approx. 10 d, 0 to 100 scale, 0 no effect, 100 complete control, read-out: Plant response rating, Kochia): 30%
- pest or weed control at 125 g/ha ([8]; 125 g ai/ha, postemergence, visual injury on 0 to 100 scale (0 no effect, 100 complete control), approx. 10 d, read-out: Ryegrass, Italian plant response rating): 70%
- pest or weed control at 31 g/ha ([8]; Postemergence, 31 g ai/ha, visual injury after approx. 10 d, 0 to 100 scale, 0 no effect, 100 complete control, read-out: Plant response rating, Ryegrass, Italian): 0%
- pest or weed control at 125 g/ha ([9]; 125 g ai/ha, postemergence, visual injury on 0 to 100 scale (0 no effect, 100 complete control), approx. 10 d, read-out: Barnyardgrass plant response rating): 90%
- pest or weed control at 31 g/ha ([9]; Postemergence, 31 g ai/ha, visual injury after approx. 10 d, 0 to 100 scale, 0 no effect, 100 complete control, read-out: Plant response rating, Barnyardgrass): 90%
- pest or weed control at 125 g/ha ([10]; 125 g ai/ha, postemergence, visual injury on 0 to 100 scale (0 no effect, 100 complete control), approx. 10 d, read-out: Blackgrass plant response rating): 50%
- pest or weed control at 31 g/ha ([10]; Postemergence, 31 g ai/ha, visual injury after approx. 10 d, 0 to 100 scale, 0 no effect, 100 complete control, read-out: Plant response rating, Blackgrass): 40%
- pest or weed control at 125 g/ha ([11]; 125 g ai/ha, postemergence, visual injury on 0 to 100 scale (0 no effect, 100 complete control), approx. 10 d, read-out: Ragweed plant response rating): 40%
- pest or weed control at 31 g/ha ([11]; Postemergence, 31 g ai/ha, visual injury after approx. 10 d, 0 to 100 scale, 0 no effect, 100 complete control, read-out: Plant response rating, Ragweed): 0%
- plant injury at 125 g/ha ([12]; 125 g ai/ha, postemergence, visual injury on 0 to 100 scale (0 no effect, 100 complete control), approx. 10 d, read-out: Corn plant response rating): 70%
- Corn plant response rating (crop injury, 0 = no effect, 100 = complete kill) at 31 g/ha ([12]; Postemergence, 31 g ai/ha, visual injury after approx. 10 d, 0 to 100 scale, 0 no effect, 100 complete control): 20%
- pest or weed control at 125 g/ha ([13]; 125 g ai/ha, postemergence, visual injury on 0 to 100 scale (0 no effect, 100 complete control), approx. 10 d, read-out: Foxtail, Giant plant response rating): 90%
- pest or weed control at 31 g/ha ([13]; Postemergence, 31 g ai/ha, visual injury after approx. 10 d, 0 to 100 scale, 0 no effect, 100 complete control, read-out: Plant response rating, Foxtail, Giant): 80%
- pest or weed control at 31 g/ha ([14]; 31 g ai/ha, Preemergence): 0%
- pest or weed control at 125 g/ha [14, 20]: 20%
- pest or weed control at 31 g/ha ([15]; 31 g ai/ha, Preemergence): 0%
- pest or weed control at 125 g/ha [15, 20]: 30%
- pest or weed control at 31 g/ha ([16]; 31 g ai/ha, Preemergence): 50%
- pest or weed control at 125 g/ha [16, 20]: 80%
- pest or weed control at 31 g/ha ([17]; 31 g ai/ha, Preemergence): 100%
- pest or weed control at 125 g/ha [17, 20]: 100%
- pest or weed control at 31 g/ha ([18]; 31 g ai/ha, Preemergence): 30%
- pest or weed control at 125 g/ha [18, 20]: 20%
- pest or weed control at 31 g/ha ([19]; 31 g ai/ha, Preemergence): 100%
- pest or weed control at 125 g/ha [19, 20]: 100%

Reference: US12077503B2, “Substituted cyclic amides and their use as herbicides” (FMC CORPORATION, priority 2015, dated 2024)
